For test [1], the system named is γH2AX. The experiment in a line: Immunofluorescence assay of γH2AX foci in HeLa cells. It counts as cell-based, human. The settings on record: 4 h treatment, 20 h further culture; for γH2AX foci formation: 1-100 μM; for number of positive cells for γH2AX foci: 11 μM, positive when >5 foci. As to the method:
(§1) FIGS. 7A-7B evaluates the Colibactin 742 (4) and its linear precursor 9 recapitulate the clb phenotype. […] HeLa cells were treated with the linear precursor 9 (1-100 μM), colibactin 742 (4) (1-100 μM) or MMC (150 nM) for 4 h. The cells were then washed and incubated for 20 h before immunofluorescence imaging. Cells were considered positive when >5 FANCD2 or γH2AX foci formed. Means and standard deviations of results from at least three independent experiments are shown. FIG. 7B depicts the DNA content histograms upon treatment with colibactin 742 (4, 11 μM) or 9 (11 μM) quantification of the sub-population of the histograms.
(§2) The present study then probed the DNA damage response that was activated following exposure to colibactin 742 (4) or its linear precursor 9. In mammalian cells, DNA interstrand cross-links (ICLs) are repaired by the Fanconi anemia pathway, and activation of this pathway is observed when eukaryotic cells are infected with clb^+ bacteria. Upon detection of an ICL, the Fanconi anemia protein D2 (FANCD2) is activated by monoubiquitinylation and recruited to the ICL to coordinate repair. Following initiation of repair, a double-strand break (DSB) is generated, which in turns triggers the formation of phospho-SER139-H2AX (γH2AX) nuclear foci. […] Consequently, the instant study probed for activation of FANCD2 and γH2AX by immunofluorescence imaging in cells treated with 4 or 9. Using conditions that closely mimic the bacterial coinfection experiments, the instant study treated HeLa cells with colibactin 742 (4) (1-100 μM), the linear precursor 9 (1-100 μM), or MMC (150 nM, higher concentrations of MMC reduced cell viability) for 4 h. The cells were then washed and cultured for a further 20 h. […] Thus, the synthetic compounds 4 and 9 induce a similar activation of the eukaryotic DNA damage response as clb^+ E. coli.
(§3) Cells were seeded at a density of 3500 cells per well to achieve total well volumes of 20 μL in 384-well plates (black with an optically clear bottom, Greiner Bio One 781091) using a Thermo Combidrop liquid dispenser. Cells were grown for 24 h, followed by the addition of test compounds using an Echo acoustic liquid handler (Labcyte). For each tested drug concentration, a 20 nL aliquot of the 1000× stock was added to 20 μL of cells to provide a final DMSO concentration of 0.1%. The compounds were incubated for 4 h at concentrations ranging from 1.2 μM to 100 μM in growth medium, at 37° C., 5% CO2. Each plate contained negative vehicle control wells (0.1% DMSO) and positive control wells (0.15 μM Mitomycin C, MMC). After 4 h incubation, the cells were washed once with Dulbecco's Phosphate-buffered solution (DPBS, Life Technologies), then fresh growth medium was added. The cells were incubated for 20 h, fixed, and subjected to immunofluorescence imaging.
(§4) Cells were fixed with 4% paraformaldehyde (PFA) (Electron Microscopy Sciences) in the presence of 0.02% Triton X-100 at room temperature (RT) for 20 min and then incubated in permeabilization/blocking solution [10% FBS and 0.5% Triton X-100 in phosphate-buffered saline (PBS)] at RT for 1 h. Primary antibodies were diluted 1:500 in permeabilization/blocking solution and used to stain cells at 4° C. overnight. […] Cells were imaged using the InCell 2200 Imaging System (GE Corp.) and analyzed using InCell Analyzer software (GE Corp.) to quantify the number of γH2AX and FANCD2 foci. Cells were counted as positive for focus formation when 5 foci/nucleus were detected.

The test system of test [2] is FANCD2. The experiment in a line: Immunofluorescence assay of FANCD2 foci in HeLa cells. It counts as cell-based, human. As to conditions: 4 h treatment, 20 h further culture; for FANCD2 foci formation: 1-100 μM. On the procedure:
as §1, §2, §3, §4

For the molecule `C[C@H]1CCC(C2=C(CC(=O)NCC(=O)c3csc(CCc4csc(CNC(=O)CC5=C(C6=N[C@@H](C)CC6)C(=O)NC5(C)C)n4)n3)C(C)(C)NC2=O)=N1` [compound 22], the γH2AX foci formation result in test [1] is recorded as “did not induce”. For the same molecule, the FANCD2 foci formation entry in test [2] is reported as “did not induce”.

Regarding `C[C@H]1CCC(CC(=O)NC2(C(=O)CC(=O)NCC(=O)c3csc(CCc4csc(CNC(=O)CC(=O)C5(NC(=O)CC6=N[C@@H](C)CC6)CC5)n4)n3)CC2)=N1` [compound 9], in test [1], the “number of positive cells for γH2AX foci” value is listed as “four-fold increase”. Besides, the “number of positive cells for FANCD2 foci” value in test [2] (11 μM, positive when >5 foci) was “four-fold increase”. The “cell death and decrease in positive cells at higher concentrations” value in test [2] (higher concentrations (>33 μM)) was “induced cell death”.

As to `CCOC(=O)c1nc(C2(O)CNC(=O)C2C2=C(C3=N[C@@H](C)CC3)C(=O)NC23CC3)cs1` (stereo partly shown) [compound 24], the γH2AX foci formation entry in test [1] is “did not induce”. Moreover, the FANCD2 foci formation result in test [2] is given as “did not induce”.

Turning to `CCOC(=O)c1csc(CNC(=O)CC2=C(C3=N[C@@H](C)CC3)C(=O)NC23CC3)n1` [compound 23, reference compound], in test [1], the “number of positive cells for γH2AX foci” value is reported as “induced significant γH2AX foci formation”. The “number of positive cells for γH2AX foci (with respect to DMSO)” value in test [1] (33 μM) is listed as “three-fold increase”. The “number of positive cells for FANCD2 foci (with respect to DMSO)” value in test [2] (33 μM) was “three-fold increase”.

The record behind these values is patent publication US20250026747A1, “COLIBACTIN DERIVATIVES AND METHODS OF TREATING, AMELIORATING, AND/OR PREVENTING CANCER” (priority 2021, published 2025).
